# Experimental data from patent publication US6288091A, “Antiherpes virus compounds and methods for their preparation and use” (Boehringer Ingelheim Ltd., priority 1999, dated 2001).
# Like-named read-outs stand apart in the source and are kept apart here.
# Assays:
# HCMV (strain AD169) = assay: Inhibition of HCMV replication, plaque reduction assay (PRA, Hs-68 cells); format: cell-based, Human Cytomegalovirus (HCMV); conditions: read-out: PRA CMV EC50
# Description: C) Inhibition of Human Cytomegalovirus (HCMV) Replication
# The effect of compounds on the replication of HCMV has been measured by using an ELISA-based assay (ELISA) and a plaque reduction assay (PRA).
# Hs-68 cells (ATCC # CRL 1635) were seeded in 12-well plates at 83,000 cells/well in 1 mL of DMEM medium (Gibco Canada Inc.) supplemented with 10% fetal bovine serum (FBS, Gibco Canada Inc.). The plates were incubated for 3 days at 37° to allow the cells to reach 80-90% confluency prior to the assay.
# The medium was removed from the cells by aspiration. The cells were then infected with approximately 50 PFU of HCMV (strain AD169, ATCC VR-538) in DMEM medium supplemented with 5% inactivated FBS (assay medium). The virus was allowed to adsorb to cells for 2 h at 37°. Following viral adsorption, the medium was removed from the wells by aspiration. The cells were then incubated with or without 1 mL of appropriate concentrations of test reagent in assay medium. After 4 days of incubation at 37°, the medium was exchanged with fresh medium containing test compound and 4 days later the cells were fixed with 1% aqueous formaldehyde and stained with a 2% crystal violet solution in 20% ethanol in water. Microscopic plaques were counted using a stereomicroscope. Drug effects were calculated as a percent reduction in the number of plaques in the presence of each drug concentration compared to the number observed in the absence of drug. Ganciclovir was used as a positive control in all experiments.
# The EC50 values obtained according to this assay for certain thiazolyl derivatives of this invention are listed in the following tables under the heading PRA CMV.
# HSV-1 helicase-primase = molecular target: T1, HSV-1 helicase-primase (Human herpesvirus 1, UniProt P10189+P10236); assay: HSV-1 DNA-dependent ATPase assay (inhibition of HSV-1 helicase-primase); format: biochemical; conditions: Group 1 Table 1 entries
# T1 construct: made in house; host or cells: Sf21 insect cells triply infected with recombinant baculoviruses (UL5, UL8, UL52)
# Text: A) HSV-1 DNA-Dependent ATP Assay (an in Vitro Assay Based on the Inhibition of HSV-1 Helicase-primase).
# HSV-1 helicase-primase holoenzyme was produced in triply infected Sf21 cells using recombinant baculoviruses expressing the UL5, UL8 and UL52 helicase-primase subunits, as described by S. Dracheva et al., J. Biol. Chem. 1995, 270, 14148. The crude enzyme was purified by ammonium sulfate precipitation, Source 15Q® chromatography and Sephacryl® S-300 HR gel filtration (both purification systems can be obtained from Pharmacia Biotech Inc., Montreal, Quebec, Canada), see S. Dracheva et al., supra.
# The DNA-dependent ATPase assay, described by J. J. Crute et al., Nucleic Acids Res. 1988, 16, 6585, was modified and used to evaluate the capability of the compounds of Group 1-formula 1 to inhibit HSV-1 helicase-primase activity. The reaction mixtures (80 μL each) contained 40 mM 4-(2-hydroxyethyl)-1-piperazineethanesulfonic acid (HEPES, pH 7.5), 10% (v/v) glycerol, 5.5 mM MgCl2, 1 mM DL-dithiothreitol (DTT), 50 μg/mL acetylated bovine serum albumin, 3.3% (v/v) DMSO, 4 mM ATP, 25 μM single-stranded M13 DNA hybridized to double-tailed 68-mer oligonucleotide and 3 μg/mL HSV-1 helicase-primase. After incubation for 20 min at 34°, formation of inorganic phosphate from hydrolysis of ATP was monitored spectrophotometrically at 650 nm using acidic ammonium molybdate/malachite green reagent, P. A. Lanzetta et al., Anal. Biochem. 1979, 100, 95. DNA-dependent ATPase activity was calculated from the net absorbance change in the presence and absence of inhibition.
# HSV-1 strain F or KOS = assay: Inhibition of herpes simplex virus (HSV-1) replication in cell culture (BHK-21 cells, glycoprotein C ELISA); format: cell-based; conditions: Human alphaherpesvirus 1, BHK-21, Group 1 Table 1 entries
# Description: B) Inhibition of Herpes Simplex Virus (HSV-1) Replication in Cell Culture
# BHK-21 cells clone 13 (ATCC CCL10) were incubated for two days in 850 cm^2 roller bottles (2×10^7 cells/bottle) with A-MEM medium (Gibco Canada Inc., Burlington, Ontario, Canada) supplemented with 8% (v/v) fetal bovine serum (FBS, Gibco Canada, Inc.). The cells were trypsinized and then 3,000 cells in 100 μL of fresh medium were transferred into each well of a 96-well microtiter plate. The cells were incubated at […] for a period of 3 days to reach a density of 50,000 cells per well. The cells were washed twice with 100 μL of α-MEM supplemented with 2% heat inactivated FBS and incubated for 1-2 hours in 100 μL of the same medium.
# Thereafter, the cells were infected with HSV-1 strain F or KOS (multiplicity of infection =0.05 PFU/cell) in 50 μL of α-MEM supplemented with 2% heat inactivated FBS. Following one hour of virus absorption at 37°, the medium was removed and the cells were washed with α-MEM supplemented with 2% heat inactivated FBS (2×100 μL). The cells were incubated with or without 100 μL of the appropriate concentration of test reagent in α-MEM medium supplemented with 2% heat inactivated FBS. After 24 hours of incubation at 37°, the extent of viral replication was determined by an ELISA assay; for instance, the following assay that detects the late glycoprotein C of HSV-1.
# Cells were fixed in the microtiter plate with 100 μL of 0.063% glutaraldehyde in phosphate buffered saline for 30 min at room temperature. The microtiter plate was then washed once with casein blocking solution and blocked with 200 μL of the same solution for one hour at room temperature. Thereafter, 100 μL of mAb C11 recognizing the glycoprotein C of HSV-1 (see E. Trybala et al., Journal of General Virology, 1994, 75, 743) was added to each well for two hours at room temperature. The plate was washed three times with phosphate buffered saline containing 0.05% polyoxyethylene (20) sorbitan monooleate. The cells were incubated with 100 μL of sheep anti-mouse IgG horseradish peroxidase for one hour at room temperature in the dark.
# The plate was washed three times with 200 μL of the above-noted phosphate buffer saline preparation, and then once with 0.1 M sodium citrate (pH 4.5). Thereafter, 100 μL of orthophenylenediamine dihydrochloride (OPD, Gibco, Canada Inc.) was added to each well. The plate was agitated on a microplate shaker for 30 min in the dark. Color development was monitored at 450 nm using a microplate spectrophotometer.
# SAS was used to calculate % inhibition of viral replication and to generate EC50 values.
# [1] = Human betaherpesvirus 5, AD169, Hs68, Group 1 Table 4 entries
# [2] = Human betaherpesvirus 5, AD169, Hs68, Group 2 Table 1 entries
# [3] = Human betaherpesvirus 5, AD169, Hs68, Group 1 Table 3 entries
# [4] = Human betaherpesvirus 5, AD169, Hs68, Group 1 Table 2 entries
# [5] = Human betaherpesvirus 5, AD169, Hs68, Group 1 Table 1 entries
# T1 sequence (P10192 whole entry): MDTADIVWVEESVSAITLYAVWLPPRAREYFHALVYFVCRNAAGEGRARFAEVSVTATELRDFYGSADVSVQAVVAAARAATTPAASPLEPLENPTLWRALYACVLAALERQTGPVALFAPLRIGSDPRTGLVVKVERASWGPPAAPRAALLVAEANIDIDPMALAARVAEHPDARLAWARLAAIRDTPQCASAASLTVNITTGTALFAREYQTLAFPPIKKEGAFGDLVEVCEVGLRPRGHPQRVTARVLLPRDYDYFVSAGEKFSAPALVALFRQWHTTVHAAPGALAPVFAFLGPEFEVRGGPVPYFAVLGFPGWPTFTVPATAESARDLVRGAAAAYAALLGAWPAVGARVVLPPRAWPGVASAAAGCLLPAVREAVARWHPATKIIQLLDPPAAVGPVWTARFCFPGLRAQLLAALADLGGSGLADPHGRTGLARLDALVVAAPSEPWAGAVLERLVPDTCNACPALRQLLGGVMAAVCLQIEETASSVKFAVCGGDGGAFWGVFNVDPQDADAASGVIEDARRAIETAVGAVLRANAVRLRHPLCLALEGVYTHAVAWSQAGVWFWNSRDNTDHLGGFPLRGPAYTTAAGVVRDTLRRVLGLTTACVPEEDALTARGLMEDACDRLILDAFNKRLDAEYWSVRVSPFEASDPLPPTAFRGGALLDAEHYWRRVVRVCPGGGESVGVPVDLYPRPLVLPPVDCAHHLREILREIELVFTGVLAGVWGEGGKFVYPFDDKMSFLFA
# T1 sequence (P10236 whole entry): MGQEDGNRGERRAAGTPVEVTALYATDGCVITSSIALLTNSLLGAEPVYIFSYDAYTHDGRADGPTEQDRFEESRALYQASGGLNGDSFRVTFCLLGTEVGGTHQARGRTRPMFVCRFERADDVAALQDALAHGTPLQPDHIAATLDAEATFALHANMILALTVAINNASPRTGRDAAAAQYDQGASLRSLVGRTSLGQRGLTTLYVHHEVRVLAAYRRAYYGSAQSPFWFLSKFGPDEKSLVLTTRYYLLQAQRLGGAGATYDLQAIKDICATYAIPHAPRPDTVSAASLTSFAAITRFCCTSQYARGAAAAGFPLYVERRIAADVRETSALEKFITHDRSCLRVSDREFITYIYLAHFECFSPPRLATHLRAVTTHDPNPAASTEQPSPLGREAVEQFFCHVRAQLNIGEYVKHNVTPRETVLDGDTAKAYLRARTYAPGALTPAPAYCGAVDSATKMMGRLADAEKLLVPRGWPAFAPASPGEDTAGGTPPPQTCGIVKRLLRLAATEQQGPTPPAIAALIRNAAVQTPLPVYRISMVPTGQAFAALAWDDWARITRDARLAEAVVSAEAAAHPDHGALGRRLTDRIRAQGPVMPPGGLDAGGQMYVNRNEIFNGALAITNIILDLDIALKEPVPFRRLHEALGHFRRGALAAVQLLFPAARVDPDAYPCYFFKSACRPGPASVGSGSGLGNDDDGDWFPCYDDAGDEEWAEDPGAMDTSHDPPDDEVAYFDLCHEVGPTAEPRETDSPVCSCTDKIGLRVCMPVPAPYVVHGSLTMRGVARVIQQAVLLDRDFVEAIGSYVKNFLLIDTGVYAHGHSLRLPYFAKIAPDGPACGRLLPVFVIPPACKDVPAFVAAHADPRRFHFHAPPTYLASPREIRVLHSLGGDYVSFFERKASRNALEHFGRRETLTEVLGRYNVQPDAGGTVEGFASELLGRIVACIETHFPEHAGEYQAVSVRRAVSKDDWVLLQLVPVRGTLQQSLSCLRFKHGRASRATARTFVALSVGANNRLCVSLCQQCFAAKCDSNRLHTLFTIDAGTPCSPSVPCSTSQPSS
# T1 sequence (P10189 whole entry): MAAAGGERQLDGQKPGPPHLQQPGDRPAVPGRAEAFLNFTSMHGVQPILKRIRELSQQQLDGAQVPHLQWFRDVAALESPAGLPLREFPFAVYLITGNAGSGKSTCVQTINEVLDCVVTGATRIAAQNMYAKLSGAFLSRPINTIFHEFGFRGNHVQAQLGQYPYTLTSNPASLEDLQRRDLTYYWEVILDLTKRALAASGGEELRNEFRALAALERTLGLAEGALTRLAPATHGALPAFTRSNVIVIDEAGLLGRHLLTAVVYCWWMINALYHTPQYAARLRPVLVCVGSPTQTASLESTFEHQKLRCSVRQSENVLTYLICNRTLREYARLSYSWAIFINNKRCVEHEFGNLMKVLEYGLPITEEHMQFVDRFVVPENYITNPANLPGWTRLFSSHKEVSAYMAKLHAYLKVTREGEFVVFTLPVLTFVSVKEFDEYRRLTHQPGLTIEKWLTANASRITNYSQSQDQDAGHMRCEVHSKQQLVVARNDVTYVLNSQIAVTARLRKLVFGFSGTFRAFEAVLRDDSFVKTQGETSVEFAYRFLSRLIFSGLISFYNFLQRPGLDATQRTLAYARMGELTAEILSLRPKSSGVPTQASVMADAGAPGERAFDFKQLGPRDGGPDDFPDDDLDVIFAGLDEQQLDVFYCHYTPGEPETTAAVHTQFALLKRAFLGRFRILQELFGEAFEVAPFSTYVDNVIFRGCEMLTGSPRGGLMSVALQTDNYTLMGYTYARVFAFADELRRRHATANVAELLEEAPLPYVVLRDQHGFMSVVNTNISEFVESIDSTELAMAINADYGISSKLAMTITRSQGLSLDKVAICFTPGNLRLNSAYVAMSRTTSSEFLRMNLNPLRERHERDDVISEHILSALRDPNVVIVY
structure (smiles),measurement,setting,value
CC(C)(C)OC(=O)Nc1nc(-c2ccc(NC(=O)CCN(Cc3ccccc3)Cc3ccccc3)cc2)cs1 [Example 1],EC50,HCMV (strain AD169); [1],1600 nM
CC(C)(C)NC(=O)Nc1nc(-c2ccc(NC(=O)CCN(Cc3ccccc3)Cc3ccccc3)cc2)cs1 [Example 2],EC50,HCMV (strain AD169); [1],1500 nM
Nc1nc(-c2ccc(NC(=O)Nc3nccs3)cc2)cs1 [Example 18],EC50,HCMV (strain AD169); [2],> 56000 nM
Nc1nc(-c2ccc(NC(=O)NCCc3c[nH]c4ccccc34)cc2)cs1 [Example 19],EC50,HCMV (strain AD169); [2],12000 nM
Cc1cc(C)nc(SCC(=O)N(CC(=O)Nc2ccc(-c3csc(NC(=O)OC(C)(C)C)n3)cc2)Cc2ccccc2)n1 [Example 21],EC50,HCMV (strain AD169); [3],1200 nM
C[C@H](c1ccccc1)N(CC(=O)Nc1ccc(-c2csc(NC(=O)OC(C)(C)C)n2)cc1)C(=O)C1CCCCC1 [Example 22],EC50,HCMV (strain AD169); [3],1300 nM
C[C@H](c1ccccc1)N(CC(=O)Nc1ccc(-c2csc(NC(=O)OC(C)(C)C)n2)cc1)C(=O)Cc1ccccn1 [Example 23],EC50,HCMV (strain AD169); [3],2800 nM
C[C@H](c1ccccc1)N(CC(=O)Nc1ccc(-c2csc(NC(=O)OC(C)(C)C)n2)cc1)C(=O)c1ccncc1 [Example 24],EC50,HCMV (strain AD169); [3],3700 nM
C[C@@H](c1ccccc1)N(CC(=O)Nc1ccc(-c2csc(NC(=O)OC(C)(C)C)n2)cc1)C(=O)Cc1ccccn1 [Example 25],EC50,HCMV (strain AD169); [3],2700 nM
CC(=O)Nc1nc(-c2ccc(NC(=O)CN(C(=O)C3CCCCC3)[C@H](C)c3ccccc3)cc2)cs1 [Example 26],EC50,HCMV (strain AD169); [3],15000 nM
Nc1nc(-c2ccc(NC(=O)CCN(Cc3ccccc3)Cc3ccccn3)cc2)cs1 [Example 26],EC50,HCMV (strain AD169); [4],14000 nM
Nc1nc(-c2ccc(NC(=O)CCN(CCN3CCCC3)Cc3ccccc3)cc2)cs1 [Example 27],EC50,HCMV (strain AD169); [4],15000 nM
CN(CCc1ccncc1)C(=O)Nc1ccc(-c2csc(NC(=O)OC(C)(C)C)n2)cc1 [Example 29],EC50,HCMV (strain AD169); [2],3900 nM
Nc1nc(-c2ccc(NC(=O)CCN(Cc3ccccc3)Cc3cccnc3)cc2)cs1 [Example 29],EC50,HCMV (strain AD169); [4],14000 nM
CCCCN(C)C(=O)Nc1ccc(-c2csc(NC(=O)OC(C)(C)C)n2)cc1 [Example 30],EC50,HCMV (strain AD169); [2],2200 nM
Nc1nc(-c2ccc(NC(=O)CCN(Cc3ccccc3)Cc3ccccc3O)cc2)cs1 [Example 30],EC50,HCMV (strain AD169); [4],13000 nM
CCCCN(CC)C(=O)Nc1ccc(-c2csc(NC(=O)OC(C)(C)C)n2)cc1 [Example 31],EC50,HCMV (strain AD169); [2],2000 nM
CCCCN(CCO)C(=O)Nc1ccc(-c2csc(NC(=O)OC(C)(C)C)n2)cc1 [Example 32],EC50,HCMV (strain AD169); [2],2000 nM
CCCCN(CC#N)C(=O)Nc1ccc(-c2csc(NC(=O)OC(C)(C)C)n2)cc1 [Example 33],EC50,HCMV (strain AD169); [2],2400 nM
CCCCNc1nc(-c2ccc(NC(=O)N(CCCC)CCCC)cc2)cs1 [Example 34],EC50,HCMV (strain AD169); [2],10000 nM
CCCCN(CCCC)C(=O)Nc1ccc(-c2csc(Nc3ccccn3)n2)cc1 [Example 35],EC50,HCMV (strain AD169); [2],2200 nM
CCCCN(CCCC)C(=O)Nc1ccc(-c2csc(Nc3cccnc3)n2)cc1 [Example 36],EC50,HCMV (strain AD169); [2],3000 nM
Nc1nc(-c2ccc(NC(=O)CN(Cc3ccccc3)C(=O)c3ccsc3)cc2)cs1 [Example 115],EC50,HCMV (strain AD169); [5],49000 nM
Nc1nc(-c2ccc(NC(=O)CN(Cc3ccccc3)C(=O)Cc3cccs3)cc2)cs1 [Example 116],EC50,HCMV (strain AD169); [5],19000 nM
Nc1nc(-c2ccc(NC(=O)CN(Cc3ccccc3)C(=O)Cc3ccsc3)cc2)cs1 [Example 117],EC50,HCMV (strain AD169); [5],35000 nM
Nc1nc(-c2ccc(NC(=O)CN(Cc3ccc(F)cc3)C(=O)Cc3ccccn3)cc2)cs1 [Example 124],EC50,HCMV (strain AD169); [5],28000 nM
Nc1nc(-c2ccc(NC(=O)CN(Cc3cccc(F)c3)C(=O)Cc3ccccn3)cc2)cs1 [Example 126],EC50,HCMV (strain AD169); [5],35000 nM
Cc1ccccc1CN(CC(=O)Nc1ccc(-c2csc(N)n2)cc1)C(=O)c1cccs1 [Example 128],EC50,HCMV (strain AD169); [5],28000 nM
Cc1ccccc1CN(CC(=O)Nc1ccc(-c2csc(N)n2)cc1)C(=O)COc1c(C)cccc1C [Example 129],EC50,HCMV (strain AD169); [5],12000 nM
Cc1cc(C)nc(SCC(=O)N(CC(=O)Nc2ccc(-c3csc(N)n3)cc2)Cc2ccccc2C)n1 [Example 130],EC50,HCMV (strain AD169); [5],8800 nM
Nc1nc(-c2ccc(NC(=O)CN(CCc3cscn3)C(=O)c3ccncc3)cc2)cs1 [Example 164],IC50,HSV-1 helicase-primase,3000 nM
same,EC50,HSV-1 strain F or KOS,61 nM
Cc1nc(CCN(CC(=O)Nc2ccc(-c3csc(N)n3)cc2)C(=O)c2ccncc2)cs1 [Example 165],IC50,HSV-1 helicase-primase,4600 nM
same,EC50,HSV-1 strain F or KOS,1100 nM
Cc1ccn(C)c1C(=O)N(CC(=O)Nc1ccc(-c2csc(N)n2)cc1)Cc1ccccc1 [Example 166],IC50,HSV-1 helicase-primase,430 nM
same,EC50,HSV-1 strain F or KOS,30 nM
Cc1cnccc1C(=O)N(CC(=O)Nc1ccc(-c2csc(N)n2)cc1)Cc1ccccc1 [Example 167],IC50,HSV-1 helicase-primase,140 nM
same,EC50,HSV-1 strain F or KOS,31 nM
Cc1cc(C(=O)N(CC(=O)Nc2ccc(-c3csc(N)n3)cc2)Cc2ccccc2)cc(C)n1 [Example 168],IC50,HSV-1 helicase-primase,2900 nM
same,EC50,HSV-1 strain F or KOS,450 nM
Nc1nc(-c2ccc(NC(=O)CN(Cc3ccccc3)C(=O)c3ccncn3)cc2)cs1 [Example 169],IC50,HSV-1 helicase-primase,1400 nM
same,EC50,HSV-1 strain F or KOS,150 nM
Nc1nc(-c2ccc(NC(=O)CN(Cc3ccccc3)C(=O)c3cscn3)cc2)cs1 [Example 170],IC50,HSV-1 helicase-primase,700 nM
same,EC50,HSV-1 strain F or KOS,1500 nM
Nc1nc(C(=O)N(CC(=O)Nc2ccc(-c3csc(N)n3)cc2)Cc2ccccc2)cs1 [Example 171],IC50,HSV-1 helicase-primase,460 nM
same,EC50,HSV-1 strain F or KOS,92 nM
Cc1nc(C(=O)N(CC(=O)Nc2ccc(-c3csc(N)n3)cc2)Cc2ccccc2)cs1 [Example 172],IC50,HSV-1 helicase-primase,1600 nM
same,EC50,HSV-1 strain F or KOS,360 nM
Cc1nc(C)c(C(=O)N(CC(=O)Nc2ccc(-c3csc(N)n3)cc2)Cc2ccccc2)s1 [Example 173],IC50,HSV-1 helicase-primase,950 nM
same,EC50,HSV-1 strain F or KOS,50 nM
Nc1nc(-c2ccc(NC(=O)CN(CCc3ccncc3)C(=O)c3ccncc3)cc2)cs1 [Example 174],IC50,HSV-1 helicase-primase,9200 nM
same,EC50,HSV-1 strain F or KOS,6600 nM
